Experimental data published in patent US12528814B2, “Bifunctional degraders of interleukin-1 receptor-associated kinases and therapeutic use thereof” (NURIX THERAPEUTICS, INC., priority 2020, dated 2026).
Read-outs that look alike come from different tables or passages of the source.

What was measured:
[1] = biological target: T1, IRAK4 (Homo sapiens (Human), UniProt Q9NWZ3); assay: IRAK4 Degradation HiBiT Assay; conditions: HiBiT-tagged Jurkat cells, 4 hrs; for Dmax: Jurkat; for DC50: read-out: Cellular IRAK4 HiBiT: DC50
Target sequence in this assay (Q9NWZ3 whole entry): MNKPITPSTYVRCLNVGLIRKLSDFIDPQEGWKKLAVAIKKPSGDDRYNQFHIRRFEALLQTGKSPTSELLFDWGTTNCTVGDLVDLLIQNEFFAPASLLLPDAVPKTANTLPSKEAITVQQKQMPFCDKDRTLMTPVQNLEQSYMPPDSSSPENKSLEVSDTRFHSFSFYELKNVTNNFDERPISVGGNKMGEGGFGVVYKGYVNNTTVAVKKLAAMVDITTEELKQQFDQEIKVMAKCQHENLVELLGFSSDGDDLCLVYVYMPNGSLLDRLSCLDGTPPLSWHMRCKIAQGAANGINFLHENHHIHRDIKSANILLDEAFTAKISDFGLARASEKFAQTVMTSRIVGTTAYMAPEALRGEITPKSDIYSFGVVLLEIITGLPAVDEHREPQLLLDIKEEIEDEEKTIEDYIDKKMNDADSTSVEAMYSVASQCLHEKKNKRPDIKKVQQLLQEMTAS

[2] = biological target: T1, IRAK4; assay: IRAK4 Biochemical HTRF Kinase Assay; conditions: read-out: IRAK4 HTRF biochemical: IC50
Summary of the method: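 HTRF KinEASE STK S1 format measuring IRAK4 phosphorylation of biotinylated peptide; reaction solution of 5 μM STK-S1, 10 mM ATP, 10 mM MgCl2 added (stock, to 10 μl final), 90 min at ambient temperature, detection 60 min. IC50 from sixteen-point duplicate curves by non-linear regression.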
Target sequence in this assay (Q9NWZ3 whole entry, species assumed): as the sequence (Q9NWZ3 whole entry) above

[3] = read-out: Cellular IRAK4 HiBiT: Dmax, Table 4
[4] = read-out: Cellular IRAK4 HiBiT: Dmax, Table 5, multiple runs

CNc1cc(-c2ccc3cc(C#N)cnn23)ncc1-c1nnc([C@H]2CC[C@H](NC(=O)CCC(=O)N[C@H](C(=O)N3C[C@H](O)C[C@H]3C(=O)N[C@@H](C)c3ccc(-c4scnc4C)cc3)C(C)(C)C)CC2)s1 [Example 56, N1-((1r,4S)-4-(5-(6-(3-cyanopyrrolo[1,2-b]pyridazin-7-yl)-4-(methylamino)pyridin-3-yl)-1,3,4-thiadiazol-2-yl)cyclohexyl)-N4—((S)-1-((2S,4R)-4-hydroxy-2-(((S)-1-(4-(4-methylthiazol-5-yl)phenyl)ethyl)carbamoyl)pyrrolidin-1-yl)-3,3-dimethyl-1-oxobutan-2-yl)succinamide]
Dmax [1, 3]: 115% | Dmax [1, 4]: 117% | DC50 ([1]; Table 4): 77.6 nM | DC50 ([1]; Table 5, multiple runs): 52.9 nM | IC50 ([2]; Table 4): 2.79 nM | IC50 ([2]; Table 5, multiple runs): 1.5 nM

CNc1cc(-c2ccc3cc(C#N)cnn23)ncc1-c1nnc([C@H]2CC[C@H](NC(=O)CCCCC(=O)N[C@H](C(=O)N3C[C@H](O)C[C@H]3C(=O)N[C@@H](C)c3ccc(-c4scnc4C)cc3)C(C)(C)C)CC2)s1 [Example 57, N1-((1r,4S)-4-(5-(6-(3-cyanopyrrolo[1,2-b]pyridazin-7-yl)-4-(methylamino)pyridin-3-yl)-1,3,4-thiadiazol-2-yl)cyclohexyl)-N6—((S)-1-((2S,4R)-4-hydroxy-2-(((S)-1-(4-(4-methylthiazol-5-yl)phenyl)ethyl)carbamoyl)pyrrolidin-1-yl)-3,3-dimethyl-1-oxobutan-2-yl)adipamide]
Dmax [1, 3]: 107% | Dmax [1, 4]: 114% | DC50 ([1]; Table 4): 89.6 nM | DC50 ([1]; Table 5, multiple runs): 81.4 nM | IC50 ([2]; Table 4): 2.9 nM | IC50 ([2]; Table 5, multiple runs): 2.9 nM

CNc1cc(-c2ccc3cc(C#N)cnn23)ncc1-c1nnc([C@H]2CC[C@H](NC(=O)CCOCCOc3cc(-c4scnc4C)ccc3CNC(=O)[C@@H]3C[C@@H](O)CN3C(=O)[C@@H](NC(=O)C3(F)CC3)C(C)(C)C)CC2)s1 [Example 58, (2S,4R)—N-(2-(2-(3-(((1r,4r)-4-(5-(6-(3-cyanopyrrolo[1,2-b]pyridazin-7-yl)-4-(methylamino)pyridin-3-yl)-1,3,4-thiadiazol-2-yl)cyclohexyl)amino)-3-oxopropoxy)ethoxy)-4-(4-methylthiazol-5-yl)benzyl)-1-((S)-2-(1-fluorocyclopropane-1-carboxamido)-3,3-dimethylbutanoyl)-4-hydroxypyrrolidine-2-carboxamide]
Dmax [1, 3]: 115% | Dmax [1, 4]: 118% | DC50 ([1]; Table 4): 72.8 nM | DC50 ([1]; Table 5, multiple runs): 73.7 nM | IC50 ([2]; Table 4): 5.26 nM | IC50 ([2]; Table 5, multiple runs): 5.3 nM

CNc1cc(-c2ccc3cc(C#N)cnn23)ncc1-c1nnc([C@H]2CC[C@H](NC(=O)CCCC(=O)N[C@H](C(=O)N3C[C@H](O)C[C@H]3C(=O)NCc3ccc(-c4scnc4C)cc3)C(C)(C)C)CC2)s1 [Example 59, N1-((1r,4S)-4-(5-(6-(3-cyanopyrrolo[1,2-b]pyridazin-7-yl)-4-(methylamino)pyridin-3-yl)-1,3,4-thiadiazol-2-yl)cyclohexyl)-N5-((S)-1-((2S,4R)-4-hydroxy-2-((4-(4-methylthiazol-5-yl)benzyl)carbamoyl)pyrrolidin-1-yl)-3,3-dimethyl-1-oxobutan-2-yl)glutaramide]
Dmax [1, 3]: 89% | Dmax [1, 4]: 101% | DC50 ([1]; Table 4): 163 nM | DC50 ([1]; Table 5, multiple runs): 160 nM | IC50 ([2]; Table 4): 0.93 nM | IC50 ([2]; Table 5, multiple runs): 0.9 nM

CNc1cc(-c2ccc3cc(C#N)cnn23)ncc1-c1nnc([C@H]2CC[C@H](NC(=O)CCCCCOc3cc(-c4scnc4C)ccc3CNC(=O)[C@@H]3C[C@@H](O)CN3C(=O)[C@@H](NC(=O)C3(F)CC3)C(C)(C)C)CC2)s1 [Example 60, (2S,4R)—N-(2-((6-(((1r,4r)-4-(5-(6-(3-cyanopyrrolo[1,2-b]pyridazin-7-yl)-4-(methylamino)pyridin-3-yl)-1,3,4-thiadiazol-2-yl)cyclohexyl)amino)-6-oxohexyl)oxy)-4-(4-methylthiazol-5-yl)benzyl)-1-((S)-2-(1-fluorocyclopropane-1-carboxamido)-3,3-dimethylbutanoyl)-4-hydroxypyrrolidine-2-carboxamide]
Dmax [1, 3]: 105% | Dmax [1, 4]: 112% | DC50 ([1]; Table 4): 159 nM | DC50 ([1]; Table 5, multiple runs): 111 nM | IC50 ([2]; Table 4): 3.55 nM | IC50 ([2]; Table 5, multiple runs): 3.5 nM

CNc1cc(-c2ccc3cc(C#N)cnn23)ncc1-c1nnc([C@H]2CC[C@H](NC(=O)CCOCCC(=O)N[C@H](C(=O)N3C[C@H](O)C[C@H]3C(=O)N[C@@H](C)c3ccc(-c4scnc4C)cc3)C(C)(C)C)CC2)s1 [Example 61, (2S,4R)-1-((S)-2-(3-(3-(((1r,4S)-4-(5-(6-(3-cyanopyrrolo[1,2-b]pyridazin-7-yl)-4-(methylamino)pyridin-3-yl)-1,3,4-thiadiazol-2-yl)cyclohexyl)amino)-3-oxopropoxy)propanamido)-3,3-dimethylbutanoyl)-4-hydroxy-N—((S)-1-(4-(4-methylthiazol-5-yl)phenyl)ethyl)pyrrolidine-2-carboxamide]
Dmax [1, 3]: 117% | Dmax [1, 4]: 121% | DC50 ([1]; Table 4): 591 nM | DC50 ([1]; Table 5, multiple runs): 399 nM | IC50 ([2]; Table 4): 3.98 nM | IC50 ([2]; Table 5, multiple runs): 4 nM

CNc1cc(-c2ccc3cc(C#N)cnn23)ncc1-c1nnc([C@H]2CC[C@H](NC(=O)CCCCCC(=O)N[C@H](C(=O)N3C[C@H](O)C[C@H]3C(=O)N[C@@H](C)c3ccc(-c4scnc4C)cc3)C(C)(C)C)CC2)s1 [Example 62, N1-((1r,4S)-4-(5-(6-(3-cyanopyrrolo[1,2-b]pyridazin-7-yl)-4-(methylamino)pyridin-3-yl)-1,3,4-thiadiazol-2-yl)cyclohexyl)-N7—((S)-1-((2S,4R)-4-hydroxy-2-(((S)-1-(4-(4-methylthiazol-5-yl)phenyl)ethyl)carbamoyl)pyrrolidin-1-yl)-3,3-dimethyl-1-oxobutan-2-yl)heptanediamide]
Dmax [1, 3]: 103% | Dmax [1, 4]: 111% | DC50 ([1]; Table 4): 74.5 nM | DC50 ([1]; Table 5, multiple runs): 58.2 nM | IC50 ([2]; Table 4): 1.51 nM | IC50 ([2]; Table 5, multiple runs): 1.5 nM

CNc1cc(-c2ccc3cc(C#N)cnn23)ncc1-c1nnc([C@H]2CC[C@H](NC(=O)CCOCCNc3ccc4c(c3)C(=O)N(C3CCC(=O)NC3=O)C4=O)CC2)s1 (stereo partly drawn) [Example 63, N-((1r,4r)-4-(5-(6-(3-cyanopyrrolo[1,2-b]pyridazin-7-yl)-4-(methylamino)pyridin-3-yl)-1,3,4-thiadiazol-2-yl)cyclohexyl)-3-(2-((2-(2,6-dioxopiperidin-3-yl)-1,3-dioxoisoindolin-5-yl)amino)ethoxy)propanamide]
Dmax [1, 3]: 80% | Dmax [1, 4]: 85% | DC50 ([1]; Table 4): 8.1 nM | DC50 ([1]; Table 5, multiple runs): 7.6 nM | IC50 ([2]; Table 4): 0.7 nM | IC50 ([2]; Table 5, multiple runs): 0.6 nM

CNc1cc(-c2ccc3cc(C#N)cnn23)ncc1-c1nnc([C@H]2CC[C@H](NC(=O)CN3CCC4(CC3)CN(c3ccc5c(c3)C(=O)N(C3CCC(=O)NC3=O)C5=O)C4)CC2)s1 (stereo partly drawn) [Example 64, N-((1r,4r)-4-(5-(6-(3-cyanopyrrolo[1,2-b]pyridazin-7-yl)-4-(methylamino)pyridin-3-yl)-1,3,4-thiadiazol-2-yl)cyclohexyl)-2-(2-(2-(2,6-dioxopiperidin-3-yl)-1,3-dioxoisoindolin-5-yl)-2,7-diazaspiro[3.5]nonan-7-yl)acetamide]
Dmax [1, 3]: 110% | Dmax [1, 4]: 112% | DC50 ([1]; Table 4): 17.3 nM | DC50 ([1]; Table 5, multiple runs): 14.9 nM | IC50 ([2]; Table 4): 0.89 nM | IC50 ([2]; Table 5, multiple runs): 0.8 nM

CNc1cc(-c2ccc3cc(C#N)cnn23)ncc1-c1nnc([C@H]2CC[C@H](NC(=O)CN3CCN(c4ccc5c(c4)C(=O)N(C4CCC(=O)NC4=O)C5=O)CC3)CC2)s1 (stereo partly drawn) [Example 65, N-((1r,4r)-4-(5-(6-(3-cyanopyrrolo[1,2-b]pyridazin-7-yl)-4-(methylamino)pyridin-3-yl)-1,3,4-thiadiazol-2-yl)cyclohexyl)-2-(4-(2-(2,6-dioxopiperidin-3-yl)-1,3-dioxoisoindolin-5-yl)piperazin-1-yl)acetamide]
Dmax [1, 3]: 109% | Dmax [1, 4]: 111% | DC50 ([1]; Table 4): 5.1 nM | DC50 ([1]; Table 5, multiple runs): 16.9 nM | IC50 ([2]; Table 4): 0.95 nM | IC50 ([2]; Table 5, multiple runs): 0.8 nM

CNc1cc(-c2ccc3cc(C#N)cnn23)ncc1-c1nnc([C@H]2CC[C@H](NC(=O)CCCCCNc3cccc4c3C(=O)N(C3CCC(=O)NC3=O)C4=O)CC2)s1 (stereo partly drawn) [Example 66, N-((1r,4r)-4-(5-(6-(3-cyanopyrrolo[1,2-b]pyridazin-7-yl)-4-(methylamino)pyridin-3-yl)-1,3,4-thiadiazol-2-yl)cyclohexyl)-6-((2-(2,6-dioxopiperidin-3-yl)-1,3-dioxoisoindolin-4-yl)amino)hexanamide]
Dmax [1, 4]: 54% | DC50 ([1]; Table 5, multiple runs): 11.2 nM | IC50 ([2]; Table 5, multiple runs): 1.6 nM

CNc1cc(-c2ccc3cc(C#N)cnn23)ncc1-c1nnc([C@H]2CC[C@H](NC(=O)CCCCCCCNc3ccc4c(c3)C(=O)N(C3CCC(=O)NC3=O)C4=O)CC2)s1 (stereo partly drawn) [Example 67, N-((1r,4r)-4-(5-(6-(3-cyanopyrrolo[1,2-b]pyridazin-7-yl)-4-(methylamino)pyridin-3-yl)-1,3,4-thiadiazol-2-yl)cyclohexyl)-8-((2-(2,6-dioxopiperidin-3-yl)-1,3-dioxoisoindolin-5-yl)amino)octanamide]
Dmax [1, 3]: 53% | Dmax [1, 4]: 86% | DC50 ([1]; Table 4): 10.4 nM | DC50 ([1]; Table 5, multiple runs): 45.7 nM | IC50 ([2]; Table 4): 1.61 nM | IC50 ([2]; Table 5, multiple runs): 1.8 nM

CNc1cc(-c2ccc3cc(C#N)cnn23)ncc1-c1nnc([C@H]2CC[C@H](NC(=O)CCCCCNc3ccc4c(c3)C(=O)N(C3CCC(=O)NC3=O)C4=O)CC2)s1 (stereo partly drawn) [Example 68, N-((1r,4r)-4-(5-(6-(3-cyanopyrrolo[1,2-b]pyridazin-7-yl)-4-(methylamino)pyridin-3-yl)-1,3,4-thiadiazol-2-yl)cyclohexyl)-6-((2-(2,6-dioxopiperidin-3-yl)-1,3-dioxoisoindolin-5-yl)amino)hexanamide]
Dmax [1, 3]: 82% | Dmax [1, 4]: 101% | DC50 ([1]; Table 4): 47.5 nM | DC50 ([1]; Table 5, multiple runs): 14.3 nM | IC50 ([2]; Table 4): 1.79 nM | IC50 ([2]; Table 5, multiple runs): 0.8 nM
